Experimental findings from patent publication US9750934B2, “Treating bacteria with electric fields” (Novocure Limited, priority 2000, dated 2017) are described below.

Where “and” joins values, the source holds several entries; their conditions need not be identical. Identical values can stand only once.

The subject of experiment [1] is P. aeruginosa strain PAO1. The experiment in a line: P. aeruginosa pulmonary infection in neutropenic ICR mice, ceftazidime alone or combined with electric fields / sham heat. The settings on record: for Average lungs weight, weight in mg (±STDEV): end of 48 hour treatment. Format: in vivo, Pseudomonas aeruginosa. As for the experimental part: In vivo experiments were also performed on Pseudomonas aeruginosa strain PAO1 in lungs of infected mice. For this example, bacteria were grown in LB media (1.0% Bacto tryptone, 0.5% Yeast extract, 1.0% NaCl (Frutarom, Haifa, Israel). Broth cultures of freshly plated bacteria were grown in 250 ml of liquid medium at 37° C. in an orbital shaker at 220 RPM (New Brunswick Scientific, N.J., USA) up to logarithmic phase, centrifuged and resuspended in saline containing 15% glycerol. Stocks were divided into aliquots of 50 μl each containing 2.17×10^7 Colony Forming Units (CFU)/ml and kept at −70° C. until use.
Experiments were conducted on 7- to 8-week-old (body weight 26-35 g) ICR female mice obtained from Harlan laboratories (Israel). Mice were housed under standard conditions of light and temperature, and were fed standard laboratory chow and water ad libitum. Electric fields were generated by 2 pairs of parallel metal electrodes, 15 mm-long; 3 mm-high. The front of the electrodes was completely insulated from the medium by a ceramic [(lead magnesium niobate-lead titanate (PMN-PT) (EDO, New York, N.Y.)] having a very high dielectric constant (∈>5000) such that their capacitance was about 10 nF each. The back of the electrodes was insulated by a 2.5 mm thick layer of 353ND medical grade epoxy (Epoxy Technology, Billerica, Mass., USA). Each electrode contained a thermistor placed within the epoxy directly on top of the ceramic in order to allow for constant monitoring of the electrodes' temperature.
Two control groups were set in each experiment: sham heat control, and non treated control (referred to as “Control”). Control electrodes of identical size and shape to the electric fields electrodes, were placed on mice of the two control groups. The Sham heat electrodes produced equal temperature changes to those produced by the field electrodes by means of a heating resistor incorporated within them, and the sham heat electrodes were placed in the same positions as the real electrodes. Except for the differences in the electrodes, the control mice and the sham heat treated mice were held in conditions identical to those of the electric fields treated mice.
Mice were rendered neutropenic (neutrophil counts, <100/mm^3), as described in Andes and Craig (1998), by two intraperitoneal injections of cyclophosphamide; four days before infection (150 mg/kg of body weight) and an additional injection one day before infection (100 mg/kg of body weight). The pulmonary infection model of Takeda et al., (2006) was used with minor modifications: Anesthetized ICR mice were challenged intra-nasally with 20 μL of saline containing various concentrations (10^4-10^7 CFU/ml) of P. aeruginosa strain PAO1. On the day of infection, immediately before use, frozen bacterial cultures were thawed and diluted in saline to the desired concentration. Anesthetized mice were challenged intra-nasally with the bacterial suspension. Mice were sacrificed at 0, 3, 6, 9, 24, and 48 hours after infection in order to determine CFU counts in their lungs. After skin disinfection with 70% alcohol, lungs from sacrificed mice were removed aseptically, photographed, weighted and their CFU content was determined.
Application of electric fields to the mouse torso was carried out as follows: 4 days before infection, the torso of anesthetized mice was shaved with electrical clippers and depilated using cold wax. Electric fields treatment was applied through four insulated electrodes placed around the mouse torso so as to generate fields of two perpendicular directions. Mice were placed inside the IVC cages and the electrodes were connected to the connection box. Application of electric fields began 3 hours after infection and was maintained for 48 h with two brief stops daily for monitoring the physical condition of the mice. After 48 h of treatment, the mice were sacrificed and bacterial numbers in lung were determined. […]

Experiment [2] concerns S. aureus. The experiment in a line: MIC of antibiotic by serial twofold dilutions (NCCLS guidelines). Format: cell-based, Staphylococcus aureus strain SH1000. Particulars: Staphylococcus aureus; chloramphenicol alone; lowest concentration that completely inhibited growth; read-out: MIC against S. aureus. As for the experimental part:
Experiments were also performed on two different types of bacteria—Pseudomonas aeruginosa strain PAO1 and Staphylococcus aureus strain SH1000. All strains were grown in LB media (1.0% Bacto tryptone, 0.5% Yeast extract, 1% NaCl). Broth cultures of freshly plated bacteria strains were grown in 3 ml of liquid medium at 37° C. for 15 hours in an orbital shaker (220 RPM) and diluted in fresh LB broth to a predetermined absorbance at 595 nm which yielded the desired CFU per ml.
The combined effect of the electric fields and antibiotics was also tested. Chloramphenicol was obtained as powder and dissolved in EtOH (99%, Frutarom). All the stock solutions were filter sterilized and held at −20° C. until use. Serial twofold dilutions of each antibiotic agent were prepared following NCCLS guidelines. […] The MIC of electric fields was defined as the lowest intensity that inhibits growth by 80% or more compared with control, as determined using the microplate reader.

For experiment [3], the system named is S. aureus. Put plainly: Checkerboard test of the combined effect of electric fields and chloramphenicol on growth of S. aureus. The class given is cell-based, Staphylococcus aureus strain SH1000. As for the experimental part: At the end of treatment, the cultures were stirred several times by up and down pipetting. Four aliquots of 250 μl were dispensed into a 96 MicroWells plate (Nunclon™ Δ, Nunc, Denmark) and the OD was determined spectrophotometrically with a microplate reader (Infinite 200, Tecan, Austria) at 750 nm. The optical densities (ODs) of the blanks, which consisted of uninoculated LB, were subtracted from the ODs of the inoculated plates. The percentage of growth for each well was calculated by dividing the OD of the wells by that of the control: (OD750mm of treated wells/OD750nm of the control well)×100.
Drug interactions with the electric fields were assessed according to the checkerboard method, with the following modifications: S. aureus inocula were diluted in LB medium containing the antibiotic to final concentration of 0.5 to 1.0×10^5 CFU/ml. The final concentrations of the chloramphenicol ranged from 0.125 to 16 μg/ml. Petri dishes containing the electric fields chamber were filled with 7 ml of the diluted cultures, and placed inside a pre cooled incubator. Fields were applied for 6 hours with the field direction alternating every 300 ms and the field intensities were varied by changing the incubator ambient temperature. Thus, lower ambient temperatures allowed for higher field intensities while maintaining the proper culture temperature of 37° C. Control plates containing the same electric fields chambers were placed in a pre-warmed incubator set at 37° C. At the end of the treatment, the cultures were stirred by pipetting the plate content up and down. Quadruplicates of 250 μl each were transferred to a 96 MicroWells plate (Nunc) and the OD was determined using Tecan microplate reader. Cultures were subjected to serial 10-fold dilution (up to 1/10,000) by adding 20 μl of sample to 180 μl of saline solution (0.85% NaCl), from which 80 μl aliquots were plated on LB agar plates (1.5% agar, 1.0% Bacto tryptone, 1% NaCl, 0.5% Yeast extract). CFU counts were performed after overnight incubation at 37° C.
To evaluate the effect of the combinations, the fractional inhibitory concentration (FIC) was calculated for the electric fields and for each antibiotic. The following formulas were used to calculate the FIC index: FIC of electric fields=MIC of electric fields in combination/MIC of electric fields alone, FIC of drug B=MIC of drug B in combination/MIC of drug B alone, and FIC index=FIC of electric fields+FIC of drug B. Synergy was defined as an FIC index of ≦0.5. Indifference was defined as an FIC index of >0.5 but of ≦4. Antagonism was defined as an FIC index of >4.

In the case of `CC(C)(O/N=C(\C(=O)N[C@@H]1C(=O)N2C(C(=O)[O-])=C(C[n+]3ccccc3)CS[C@H]12)c1csc(N)n1)C(=O)O` [ceftazidime, Ceftazidime], the “reduction in the lung CFU content compared to the antibiotic-only treated control” value in experiment [1] (48 h combined treatment of electric fields and ceftazidime) worked out at 1.5 log. Also, the “Log CFU (T48) ± STDEV, number of bacteria in the lungs of infected mice” value in experiment [1] (ceftazidime 5 mg/kg i.p. twice daily + electric fields, 48 h) amounted to 5.0 ± 1.7 Log CFU; in experiment [1] (ceftazidime 5 mg/kg i.p. twice daily + sham heat, 48 h) it was 6.0 ± 2.3 Log CFU; in experiment [1] (ceftazidime 5 mg/kg i.p. twice daily alone (control of the with-ceftazidime groups), 48 h) it was 6.5 ± 2.5 Log CFU. Also, in experiment [1] (ceftazidime 10 mg/kg BW/day alone), the “growth reduction compared to the non treated lungs” value is recorded as roughly 2 logs. In addition, the “log CFU/lung (T48/T0) (±STDEV), P. aeruginosa growth in mice lungs” value in experiment [1] (ceftazidime + electric fields, 48 h) is 0.4 log CFU/lung and 0.4 ± 1.7 log CFU/lung; in experiment [1] (ceftazidime + sham heat, 48 h), 1.3 ± 2.2 log CFU/lung; in experiment [1] (ceftazidime alone (control), 10 mg/kg BW/day, 48 h, 10 mg/kg/day) it was 1.9 log CFU/lung and 1.9 ± 2.5 log CFU/lung. Also, the “Average lungs weight, weight in mg (±STDEV)” value is reported as 244 ± 31 mg in experiment [1] (ceftazidime + electric fields), 275 ± 60 mg in experiment [1] (ceftazidime + sham heat) and 310 ± 77 mg in experiment [1] (ceftazidime alone (control)). Also, the “lung CFU count reduction compared to the control” value in experiment [1] (combined treatment of sham heat and ceftazidime, 48 h) was “did not result in a significant count reduction”.

For orientation: MIC means the lowest concentration found to suppress growth. Regarding `O=C(N[C@H](CO)[C@H](O)c1ccc([N+](=O)[O-])cc1)C(Cl)Cl` [chloramphenicol, Chloramphenicol], the minimum inhibitory concentration (MIC) in the experiment with S. aureus [2] is 4 µg/mL. For the same molecule, the “combined effect of electric fields and chloramphenicol” value in the experiment with S. aureus [3] (S. aureus, 10 MHz fields, 6 hours) is recorded as “additive effect”. Also, the “growth of S. aureus relative to control” value turned out to be 66% in the experiment on S. aureus [3] (chloramphenicol 0.25 μg/ml, 0 V/cm, 6 hours); 39% with S. aureus [3] (chloramphenicol 0.25 μg/ml, 0.5-2.0 V/cm 10 MHz fields, 6 hours); 51% with S. aureus [3] (chloramphenicol 0.25 μg/ml, 2.0-2.5 V/cm 10 MHz fields, 6 hours); 13% in the experiment on S. aureus [3] (chloramphenicol 0.25 μg/ml, 3.5-4.5 V/cm 10 MHz fields, 6 hours); 45% in the experiment with S. aureus [3] (chloramphenicol 0.5 μg/ml, 0 V/cm, 6 hours); 16% with S. aureus [3] (chloramphenicol 0.5 μg/ml, 0.5-2.0 V/cm 10 MHz fields, 6 hours). The “growth of S. aureus relative to control” value with S. aureus [3] (chloramphenicol 0.5 μg/ml, 2.0-2.5 V/cm 10 MHz fields, 6 hours) was determined as 20%; in the experiment with S. aureus [3] (chloramphenicol 0.5 μg/ml, 3.5-4.5 V/cm 10 MHz fields, 6 hours) it was 21%; in the experiment with S. aureus [3] (chloramphenicol 1 μg/ml, 0 V/cm, 6 hours), 30%; in the experiment with S. aureus [3] (chloramphenicol 1 μg/ml, 0.5-2.0 V/cm 10 MHz fields, 6 hours) it was 26%; in the experiment on S. aureus [3] (chloramphenicol 1 μg/ml, 2.0-2.5 V/cm 10 MHz fields, 6 hours), 6%; with S. aureus [3] (chloramphenicol 1 μg/ml, 3.5-4.5 V/cm 10 MHz fields, 6 hours), 2%. The “growth of S. aureus relative to control” value is on record as 7% in the experiment with S. aureus [3] (chloramphenicol 4 μg/ml, 0 V/cm, 6 hours); 13% in the experiment with S. aureus [3] (chloramphenicol 4 μg/ml, 0.5-2.0 V/cm 10 MHz fields, 6 hours); 2% in the experiment with S. aureus [3] (chloramphenicol 4 μg/ml, 2.0-2.5 V/cm 10 MHz fields, 6 hours); 0% in the experiment with S. aureus [3] (chloramphenicol 4 μg/ml, 3.5-4.5 V/cm 10 MHz fields, 6 hours). The FIC index with S. aureus [3] (electric fields + chloramphenicol, based on OD measurements) came out at 0.625. Besides, in the experiment on S. aureus [3] (in the presence of 4 V/cm 10 MHz electric fields applied for 6 hours, field direction alternating every 300 ms), the “concentration sufficient to produce complete inhibition of the growth of S. aureus in combination with electric fields” value is 1 µg/mL.
